From patent publication US12351616B2, “Peptides and combination of peptides for use in immunotherapy against esophageal cancer and other cancers” (Immatics Biotechnologies GmbH, priority 2015, dated 2025)

Key:
[1] = tested on: CD8+ T cells; test: In vitro T-cell priming assay with aAPCs loaded with peptide/MHC and anti-CD28, pMHC multimer readout; type: cell-based, human; conditions: for Donors: percentage of positive donors; for Donors / wells: Table 10A; for wells: percentage of positive wells; for Wells positive [%]: Table 10B
Description: In order to obtain information regarding the immunogenicity of the TUMAPs of the present invention, the inventors performed investigations using an in vitro T-cell priming assay based on repeated stimulations of CD8+ T cells with artificial antigen presenting cells (aAPCs) loaded with peptide/MHC complexes and anti-CD28 antibody.
In order to perform in vitro stimulations by artificial antigen presenting cells loaded with peptide-MHC complex (pMHC) and anti-CD28 antibody, the inventors first isolated CD8+ T cells from fresh HLA-A*02 leukapheresis products via positive selection using CD8 microbeads (Miltenyi Biotec, Bergisch-Gladbach, Germany) of healthy donors obtained from the University clinics Mannheim, Germany, after informed consent.
PBMCs and isolated CD8+ lymphocytes were incubated in T-cell medium (TCM) until use consisting of RPMI-Glutamax (Invitrogen, Karlsruhe, Germany) supplemented with 10% heat inactivated human AB serum (PAN-Biotech, Aidenbach, Germany), 100 U/ml Penicillin/100 μg/ml Streptomycin (Cambrex, Cologne, Germany), 1 mM sodium pyruvate (CC Pro, Oberdorla, Germany), 20 μg/ml Gentamycin (Cambrex). 2.5 ng/ml IL-7 (PromoCell, Heidelberg, Germany) and 10 U/ml IL-2 (Novartis Pharma, Nurnberg, Germany) were also added to the TCM at this step.
Generation of pMHC/anti-CD28 coated beads, T-cell stimulations and readout was performed in a highly defined in vitro system using four different pMHC molecules per stimulation condition and 8 different pMHC molecules per readout condition.
The purified co-stimulatory mouse IgG2a anti human CD28 Ab 9.3 (Jung et al., 1987) was chemically biotinylated using Sulfo-N-hydroxysuccinimidobiotin as recommended by the manufacturer (Perbio, Bonn, Germany). Beads used were 5.6 μm diameter streptavidin coated polystyrene particles (Bangs Laboratories, Illinois, USA).
800.000 beads/200 μl were coated in 96-well plates in the presence of 4×12.5 ng different biotin-pMHC, washed and 600 ng biotin anti-CD28 were added subsequently in a volume of 200 μl. Stimulations were initiated in 96-well plates by co-incubating 1×10^6 CD8+ T cells with 2×10^5 washed coated beads in 200 μl TCM supplemented with 5 ng/ml IL-12 (PromoCell) for 3 days at 37° C. Half of the medium was then exchanged by fresh TCM supplemented with 80 U/ml IL-2 and incubating was continued for 4 days at 37° C. This stimulation cycle was performed for a total of three times. For the pMHC multimer readout using 8 different pMHC molecules per condition, a two-dimensional combinatorial coding approach was used as previously described (Andersen et al., 2012) with minor modifications encompassing coupling to 5 different fluorochromes. Finally, multimeric analyses were performed by staining the cells with Live/dead near IR dye (Invitrogen, Karlsruhe, Germany), CD8-FITC antibody clone SK1 (BD, Heidelberg, Germany) and fluorescent pMHC multimers. For analysis, a BD LSRII SORP cytometer equipped with appropriate lasers and filters was used. Peptide specific cells were calculated as percentage of total CD8+ cells. Evaluation of multimeric analysis was done using the FlowJo software (Tree Star, Oregon, USA). In vitro priming of specific multimer+CD8+ lymphocytes was detected by comparing to negative control stimulations.

[2] = biological target: HLA-A*02:01 (Homo sapiens, UniProt P04439, D140Y/D185E/D98H/E176V/E277Q/G131W/G231S/I119V/I121R/I166T/I218V/L300P/L318F/N151K/N90K/P208A/P217A/Q86G/Q94H/R138H/R169H/T345S); test: MHC binding assay: UV-ligand exchange with β2m ELISA; conditions: peptide exchange yield, binding to HLA-A*02:01
Description: Candidate peptides for T cell based therapies according to the present invention were further tested for their MHC binding capacity (affinity). The individual peptide-MHC complexes were produced by UV-ligand exchange, where a UV-sensitive peptide is cleaved upon UV-irradiation, and exchanged with the peptide of interest as analyzed. Only peptide candidates that can effectively bind and stabilize the peptide-receptive MHC molecules prevent dissociation of the MHC complexes. To determine the yield of the exchange reaction, an ELISA was performed based on the detection of the light chain (β2m) of stabilized MHC complexes. The assay was performed as generally described in Rodenko et al. (Rodenko et al., 2006).
96 well MAXISorp plates (NUNC) were coated over night with 2 ug/ml streptavidin in PBS at room temperature, washed 4× and blocked for 1 h at 37° C. in 2% BSA containing blocking buffer. Refolded HLA-A*02:01/MLA-001 monomers served as standards, covering the range of 15-500 ng/ml. Peptide-MHC monomers of the UV-exchange reaction were diluted 100 fold in blocking buffer. Samples were incubated for 1 h at 37° C., washed four times, incubated with 2 ug/ml HRP conjugated anti-β2m for 1 h at 37° C., washed again and detected with TMB solution that is stopped with […]. Absorption was measured at 450 nm. Candidate peptides that show a high exchange yield (preferably higher than 50%, most preferred higher than 75%) are generally preferred for a generation and production of antibodies or fragments thereof, and/or T cell receptors or fragments thereof, as they show sufficient avidity to the MHC molecules and prevent dissociation of the MHC complexes.

Substance | Donors [1] | wells [1] | Wells positive [%] [1] | Peptide exchange [2]
94 (TLLQEQGTKTV; listed as Homo sapiens) [compound 94] | ++ (20%-49% = ++) | + (<20% = +) |  | 
98 (VLFPNLKTV; listed as Homo sapiens) [compound 98] | ++++ (>= 70% = ++++) | + (<20% = +) |  | 
2 (SLYNLGGSKRISI; listed as Homo sapiens) [compound 2] |  |  | + (<20% = +) | ++++ (≥75% = ++++)
95 (LIQDRVAEV; listed as Homo sapiens) [compound 95] | ++ (20%-49% = ++) | + (<20% = +) |  | 
5 (NLMASQPQL; listed as Homo sapiens) [compound 5] |  |  | +++ (50%-69% = +++) | +++ (≥50 = +++)
29 (SLDGTELQL; listed as Homo sapiens) [compound 29] |  |  | + (<20% = +) | +++ (≥50 = +++)
12 (GLASRILDA; listed as Homo sapiens) [compound 12] |  |  | + (<20% = +) | +++ (≥50 = +++)
69 (GLLVGSEKVTM; listed as Homo sapiens) [compound 69] |  |  | + (<20% = +) | +++ (≥50 = +++)
47 (VLASGFLTV; listed as Homo sapiens) [compound 47] |  |  | +++ (50%-69% = +++) | ++++ (≥75% = ++++)
97 (ELDRTPPEV; listed as Homo sapiens) [compound 97] | ++++ (>= 70% = ++++) | ++ (20%-49% = ++) |  | 
101 (AMTQLLAGV; listed as Homo sapiens) [compound 101] | +++ (50%-69% = +++) | ++ (20%-49% = ++) |  | 
1 (STYGGGLSV; listed as Homo sapiens) [compound 1] |  |  | + (<20% = +) | +++ (≥50 = +++)
6 (LLSGDLIFL; listed as Homo sapiens) [compound 6] |  |  | ++ (20%-49% = ++) | +++ (≥50 = +++)
77 (VLVPYEPPQV; listed as Homo sapiens) [compound 77] |  |  | + (<20% = +) | ++ (≥20% = ++)
19 (GLAPFLLNAV; listed as Homo sapiens) [compound 19] |  |  | + (<20% = +) | +++ (≥50 = +++)
27 (NLREGDQLL; listed as Homo sapiens) [compound 27] |  |  |  | +++ (≥50 = +++)
76 (KVADYIPQL; listed as Homo sapiens) [compound 76] |  |  |  | +++ (≥50 = +++)
68 (PAVLQSSGLYSL; listed as Homo sapiens) [compound 68] |  |  |  | ++ (≥20% = ++)
